Reference: ChEMBL document CHEMBL1614632, “Trend analysis of a database of intravenous pharmacokinetic parameters in humans for 670 drug compounds” (Drug Metab Dispos, 2008)

Tests used:
[1] = human, in vivo, iv
[2] = clinical; conditions: human, in vivo, iv, Vdss
[3] = clinical; conditions: human, in vivo, iv, CL
[4] = clinical; conditions: human, in vivo, iv
[5] = human, in vivo, iv; remark: listed apart in the source
[6] = clinical; conditions: human, in vivo, iv, t1/2
[7] = clinical; conditions: human, in vivo, iv; remark: listed apart in the source

Structure (SMILES) | t1/2 [1] [h] | Vd [2] [L/kg] | clearance [3] [mL/min/kg] | MRT [4] [h] | Vdss [5] [L/kg] | half-life [6] [h] | fraction unbound [7]
N=C(N)c1ccc(OCCCCCOc2ccc(C(=N)N)cc2)cc1 [PENTAMIDINE] | 25 | 53 | 74 | 12 |  |  | 
COc1cc2c(c(OC)c1OC)-c1ccc(OC)c(=O)cc1[C@@H](NC(C)=O)CC2 [COLCHICINE] | 58 | 6.1 | 2.1 | 49 |  |  | 
NCCCC[C@H](NC(=O)[C@@H](Cc1cc(Br)c(O)c(Br)c1)NC(=O)N1CCC(N2Cc3ccccc3NC2=O)CC1)C(=O)N1CCN(c2ccncc2)CC1 [OLCEGEPANT] |  |  | 2.6 | 1.9 | 0.31 | 2.5 | 
NCCC(O)(P(=O)(O)O)P(=O)(O)O [PAMIDRONIC ACID] | 32 | 1.8 | 2.5 | 12 |  |  | 
COc1cccc2c1C(=O)c1c(O)c3c(c(O)c1C2=O)C[C@@](O)(C(=O)CO)C[C@@H]3O[C@H]1C[C@H](N)[C@@H](O)[C@H](C)O1 [EPIRUBICIN] | 36 | 45 | 20 | 38 |  |  | 
COC(=O)CCc1ccc(OCC(O)CNC(C)C)cc1 (stereo not drawn) [ESMOLOL] | 0.15 | 1.2 | 290 | 0.07 |  |  | 0.59
CCN(CC)CCCC(C)Nc1ccnc2cc(Cl)ccc12 (stereo not drawn) [CHLOROQUINE] | 570 | 140 | 4.1 | 740 |  |  | 
CC1CNc2c(cccc2S(=O)(=O)N[C@@H](CCCNC(=N)N)C(=O)N2CC[C@@H](C)C[C@@H]2C(=O)O)C1 (stereo partly drawn) [ARGATROBAN] | 0.4 | 0.17 | 5 | 0.57 |  |  | 
COc1ccc(CC2c3cc(OC)c(OC)cc3CC[N+]2(C)CCC(=O)OCCCCCOC(=O)CC[N+]2(C)CCc3cc(OC)c(OC)cc3C2Cc2ccc(OC)c(OC)c2)cc1OC (stereo not drawn) |  | 0.1 | 5.7 | 0.29 |  | 0.31 | 0.52
CC[C@@H](CO)NCCN[C@@H](CC)CO [ETHAMBUTOL] |  | 1.7 | 10 | 2.7 |  | 3.1 | 0.18
Nc1nc(F)nc2c1ncn2[C@@H]1O[C@H](CO)[C@@H](O)[C@@H]1O [FLUDARABINE] |  | 2.2 | 3.2 | 12 |  | 11 | 0.76
CCOC(=O)C1=C(C)NC(C)=C(C(=O)OC)C1c1cccc([N+](=O)[O-])c1 (stereo not drawn) [NITRENDIPINE] |  | 6.1 | 25 | 4.1 |  | 8.2 | 0.02
CCCC(C)(COC(N)=O)COC(N)=O [MEPROBAMATE] |  | 0.7 | 0.6 | 19 |  | 14 | 1
O=C1CN=C(c2ccccc2Cl)c2cc(Cl)ccc2N1 [DELORAZEPAM] |  | 2.2 | 0.17 | 220 |  | 200 | 0.051
CCCn1c(=O)[nH]c(=O)c2[nH]cnc21 [ENPROFYLLINE] |  | 0.63 | 4 | 2.6 |  | 1.8 | 0.55
O=[N+]([O-])O[C@H]1CO[C@H]2[C@@H]1OC[C@H]2O[N+](=O)[O-] [ISOSORBIDE DINITRATE] |  |  | 31 | 1 | 1.9 | 1.69 | 0.72
C[C@@H](O)[C@H]1C(=O)N2C(C(=O)[O-])=C(SC3Cn4cnc[n+]4C3)[C@H](C)[C@H]12 (stereo partly drawn) [BIAPENEM] |  | 0.2 | 2.5 | 1.3 |  | 1.1 | 0.92
NCC[C@H](O)C(=O)N[C@@H]1C[C@H](N)[C@@H](O[C@H]2O[C@H](CN)[C@@H](O)[C@H](O)[C@H]2O)[C@H](O)[C@H]1O[C@H]1O[C@H](CO)[C@@H](O)[C@H](N)[C@H]1O [AMIKACIN] |  | 0.16 | 1.1 | 2.4 |  | 2.4 | 0.88
COc1cc2c(cc1OC)[C@@H](Cc1cc(OC)c(OC)c(OC)c1)[N+](C)(CCCOC(=O)CC/C=C/CCC(=O)OCCC[N+]1(C)CCc3cc(OC)c(OC)cc3[C@H]1Cc1cc(OC)c(OC)c(OC)c1)CC2 (stereo partly drawn) | 0.83 | 0.27 | 5.2 | 0.87 |  |  | 0.7
O=C1c2cccc3c2[C@H](CCC3)CN1[C@@H]1CN2CCC1CC2 [PALONOSETRON] |  | 6.3 | 2.6 | 40 |  | 39 | 0.38
CC(=O)[C@]1(O)Cc2c(O)c3c(c(O)c2[C@@H](O[C@H]2C[C@H](N)[C@H](O)[C@H](C)O2)C1)C(=O)c1ccccc1C3=O [IDARUBICIN] |  | 38 | 24 | 26 |  | 16 | 0.076
